Data taken from paper PMC11191687.

Experiments:
[1] = as series B (acyl azide from hydrazide, MeCN cosolvent), isolated after prep HPLC; conditions: the molecule shown is the open-chain precursor, aq phosphate buffer (6 M GdmCl) diluted with 2 vol 50% MeCN/water, 4.0 mM, 2 steps
[2] = as series A (acyl azide from hydrazide, biphasic EtOAc/buffer), isolated after prep HPLC; conditions: aq phosphate buffer (6 M GdmCl) / EtOAc biphasic, 3.0 mM, 0.25 h, 2 steps
[3] = head-to-tail lactamisation of unprotected peptide acyl azide (from C-terminal hydrazide, 20 equiv NaNO2, pH 3, -15 C, then NaHCO3 to pH ~7), biphasic EtOAc/buffer; conditions: aq phosphate buffer (6 M GdmCl, 50 mM NaH2PO4, 1.5 mM EDTA) / EtOAc biphasic, 3.0 mM, 0.25 h, 2 steps
[4] = from CC[C@H](NC(=O)[C@H](CC(C)C)N(C)C(=O)[C@H](C(C)C)N(C)C(=O)[C@H](CC(C)C)N(C)C(=O)[C@H](CC(C)C)N(C)C(=O)[C@@H](C)N)C(=O)N(C)CC(=O)N(C)[C@@H](CC(C)C)C(=O)N[C@H](C(=O)N(C)[C@@H](CC(C)C)C(=O)N[C@@H](C)C(=O)N=[N+]=[N-])C(C)C, 33-membered ring
[5] = from CC(C)C[C@H](NC(=O)[C@H](CC(C)C)N(C)C(=O)[C@H](C)NC(=O)[C@H](Cc1ccc(O)c([N+](=O)[O-])c1)NC(=O)[C@H](CC(C)C)N(C)C(=O)[C@H](C)N)C(=O)N[C@@H](Cc1ccccc1)C(=O)N=[N+]=[N-], 21-membered ring

CC(C)C[C@H](NC(=O)[C@H](CCCN)NC(=O)[C@@H](NC(=O)[C@@H]1CCCN1C(=O)[C@@H](Cc1ccccc1)NC(=O)[C@H](CC(C)C)NC(=O)[C@H](CCCN)NC(=O)[C@@H](NC(=O)[C@@H]1CCCN1C(=O)[C@H](N)Cc1ccccc1)C(C)C)C(C)C)C(=O)N=[N+]=[N-] [H-D-Phe-Pro-Val-Orn-Leu-D-Phe-Pro-Val-Orn-Leu-N3]
ring closure, yield over several steps ([1]; 30-membered ring): 63%

CC[C@H](C)[C@H](NC(=O)CNC(=O)[C@H](CO)NC(=O)[C@@H]1CCCN1C(=O)[C@@H](NC(=O)[C@@H]1CCCN1)C(C)C)C(=O)N[C@@H](Cc1ccccc1)C(=O)NCC(=O)N=[N+]=[N-] [H-Pro-Val-Pro-Ser-Gly-Ile-Phe-Gly-N3]
ring closure, yield over several steps ([1]; 24-membered ring): 42%

CC(=O)N[C@@H](Cc1ccccc1)C(=O)N[C@@H](CCCN)C(=O)N1CCC[C@H]1C(=O)N[C@H](Cc1ccc(O)cc1)C(=O)N[C@@H](Cc1c[nH]c2ccccc12)C(=O)N[C@@H](CCCNC(=N)N)C(=O)N=[N+]=[N-] [Ac-Phe-Orn(cyclises via side chain)-Pro-D-Tyr-Trp-Arg-N3]
ring closure, yield over several steps ([1]; 18-membered ring): 62%

CC(C)C[C@H](NC(=O)[C@H](CCCN)NC(=O)[C@@H](NC(=O)[C@H](Cc1ccc(O)cc1)NC(=O)[C@H](CCC(N)=O)NC(=O)[C@H](CC(N)=O)NC(=O)[C@@H](Cc1ccccc1)NC(=O)[C@H](Cc1ccccc1)NC(=O)[C@@H]1CCCN1C(=O)[C@H](N)Cc1ccccc1)C(C)C)C(=O)N=[N+]=[N-] [H-D-Phe-Pro-Phe-D-Phe-Asn-Gln-Tyr-Val-Orn-Leu-N3]
ring closure, yield over several steps ([1]; 30-membered ring, 0.25 h): 68%

CC[C@@H]1NC(=O)[C@H](CC(C)C)N(C)C(=O)[C@H](C(C)C)N(C)C(=O)[C@H](CC(C)C)N(C)C(=O)[C@H](CC(C)C)N(C)C(=O)[C@@H](C)NC(=O)[C@H](C)NC(=O)[C@H](CC(C)C)N(C)C(=O)[C@H](C(C)C)NC(=O)[C@H](CC(C)C)N(C)C(=O)CN(C)C1=O
ring closure, yield over several steps [2, 4]: 22%
ring closure, conversion by HPLC [3, 4]: 61%

CSCC[C@H](NC(=O)[C@@H](NC(=O)[C@H](CC(C)C)NC(=O)CNC(=O)[C@@H]1CCCN1C(=O)[C@@H](NC(=O)CNC(=O)[C@@H](N)Cc1ccccc1)C(C)C)C(C)C)C(=O)N=[N+]=[N-] [H-Phe-Gly-Val-Pro-Gly-Leu-Val-Met-N3]
ring closure, yield over several steps ([1]; 24-membered ring): 12%

CC(C)C[C@@H]1NC(=O)[C@H](CC(C)C)N(C)C(=O)[C@H](C)NC(=O)[C@H](Cc2ccc(O)c([N+](=O)[O-])c2)NC(=O)[C@H](CC(C)C)N(C)C(=O)[C@H](C)NC(=O)[C@H](Cc2ccccc2)NC1=O [H-Ala-N-Me-Leu-Tyr(3-NO2)-Ala-N-Me-Leu-Leu-Phe-N3]
ring closure, yield over several steps [2, 5]: 40%
ring closure, conversion by HPLC [3, 5]: 88%

CCCCC(C)CCC(=O)N[C@@H](CCN)C(=O)N[C@H](C(=O)N[C@@H](CCN)C(=O)N[C@@H](CCN)C(=O)N[C@@H](CCN)C(=O)N[C@H](CC(C)C)C(=O)N[C@@H](CC(C)C)C(=O)N[C@@H](CCN)C(=O)N[C@@H](CCN)C(=O)N[C@H](C(=O)N=[N+]=[N-])[C@@H](C)O)[C@@H](C)O (some centres unmarked)
ring closure, yield over several steps ([1]; 23-membered ring): 3%

CC(C)C[C@H](NC(=O)[C@H](Cc1ccc(O)cc1)NC(=O)[C@@H]1CCCN1C(=O)CN)C(=O)N[C@@H](C)C(=O)N=[N+]=[N-] [H-Gly-Pro-Tyr-Leu-Ala-N3]
ring closure, yield over several steps ([1]; 15-membered ring): 51%
